Literature values as cited in PMC9302689 (British Journal of Clinical Pharmacology, 2022).

Columns and labels:
[1] = cited from earlier work
[2] = cited from earlier work; remark: listed apart in the source

Compound	NeuroCart effects [1]	Effect on serum cortisol and prolactin levels [2]
CNC1(c2ccccc2Cl)CCCCC1=O (stereo not shown) [Ketamine]	decreased saccadic peak velocity, adaptive tracking and alertness and increased body sway and psychedelic effects	–
CN(C)CCCC1(c2ccc(F)cc2)OCc2cc(C#N)ccc21 (stereo not shown) [citalopram]	–	increase levels of these hormones
CN(C)CCC[C@@]1(c2ccc(F)cc2)OCc2cc(C#N)ccc21 [escitalopram]	–	increase levels of these hormones
Buprenorphine	decreased adaptive tracking and saccadic peak velocity and increased body sway	–
